How the values were obtained:
[1] = system: Botrytis cinera; experiment: Greenhouse Botrytis cinera test in tomato, preventive; type: in vivo; conditions: 24 h, plants sprayed one day before inoculation, read-out: Efficacy (% control), disease severity vs untreated check
[2] = system: Pyricularia oryzae; experiment: microbe, parasite or virus in culture; type: cell-based; conditions: 168 h, read-out: % control compared to the untreated check (radial growth)
[3] = system: Rhizoctonia solani; experiment: Rhizoctonia solani (rice sheath blight/potato black scurf) in vitro test, radial growth on Potato Dextrose Agar; type: cell-based; conditions: 168 h, 300 ppm, seven days, 25° C., read-out: % control compared to the untreated check (radial growth)
[4] = system: Botrytis cinerea; experiment: Botrytis cinerea (gray mold) in vitro test, radial growth on Potato Dextrose Agar; type: cell-based; conditions: 168 h, 300 ppm, seven days, 22° C., read-out: % (control) compared to the untreated check (radial growth)
[5] = system: Alternaria solani; experiment: Alternaria solani (early blight of tomato/potato) in vitro test, radial growth on Potato Dextrose Agar; type: cell-based; conditions: 168 h, 300 ppm, seven days, 25° C., read-out: % control compared to the untreated check (radial growth)
[6] = system: Colletotrichum capsici; experiment: Colletotrichum capsici (anthracnose) in vitro test, radial growth on Potato Dextrose Agar; type: cell-based; conditions: Colletotrichum truncatum, 168 h; 300 ppm; seven days, 25° C.; read-out: % control compared to the untreated check (radial growth)
[7] = system: Septoria lycopersici; experiment: Septoria lycopersici (leaf spot of tomato) in vitro test, radial growth on Potato Dextrose Agar; type: cell-based; conditions: 168 h, seven days, 25° C., read-out: % control compared to the untreated check (radial growth)
[8] = system: Fusarium culmorum; experiment: Fusarium culmorum (foot rot of cereals) in vitro test, radial growth on Potato Dextrose Agar; type: cell-based; conditions: Fusarium culmorum, 168 h, read-out: % control compared to the untreated check (radial growth)

Cc1cc(N=CN(C#N)CC#N)c(C)cc1Cc1ccccc1Cl [Compound 90, N′-(4-(2-chlorobenzyl)-2,5-dimethylphenyl)-N-cyano-N-(cyanomethyl)formimidamide]
pest or weed control at 500 ppm [1]: 70 to 100%

CCN(C)C=Nc1cc(C)c(Cc2cc(Cl)cc(Cl)c2)cc1C [Compound 3, N′-(4-(3,5-dichlorobenzyl)-2,5-dimethylphenyl)-N-ethyl-N-methylformimidamide]
inhibition of growth at 300 ppm [2]: > 75% | inhibition of growth at 300 ppm [3]: > 80% | inhibition of growth at 300 ppm [4]: > 80% | inhibition of growth at 300 ppm [5]: > 75% | inhibition of growth at 300 ppm [6]: > 80% | inhibition of growth at 300 ppm [7]: > 70% | pest or weed control at 500 ppm [1]: 70 to 100%

CCN(C)C=Nc1cc(C)c(Cc2cc(Cl)ccc2Cl)cc1Cl [Compound 166, N′-(2-chloro-4-(2,5-dichlorobenzyl)-5-methylphenyl)-N-ethyl-N-methylformimidamide]
inhibition of growth at 300 ppm [2]: > 75% | inhibition of growth at 300 ppm [3]: > 80% | inhibition of growth at 300 ppm [4]: > 80% | inhibition of growth at 300 ppm [5]: > 75% | inhibition of growth at 300 ppm [6]: > 80% | inhibition of growth at 300 ppm [7]: > 70% | pest or weed control at 500 ppm [1]: 70 to 100%

CCN(C)C=Nc1cc(C)c(Cc2ccccc2[S+](C)[O-])cc1C (centres unmarked) [Compound 24, N′-(2,5-dimethyl-4-(2-(methylsulfinyl)benzyl)phenyl)-N-ethyl-N-methylformimidamide]
inhibition of growth at 300 ppm [2]: > 75% | inhibition of growth at 300 ppm [3]: > 80% | inhibition of growth at 300 ppm [5]: > 75% | inhibition of growth at 300 ppm [7]: > 70% | pest or weed control at 500 ppm [1]: 70 to 100%

CCN(C)C=Nc1cc(C)c(Cc2ccccc2OC(F)(F)F)cc1Cl [Compound 102, N′-(2-chloro-5-methyl-4-(2-(trifluoromethoxy)benzyl)phenyl)-N-ethyl-N-methylformimidamide]
inhibition of growth at 300 ppm [2]: > 75% | inhibition of growth at 300 ppm [3]: > 80% | inhibition of growth at 300 ppm [4]: > 80% | inhibition of growth at 300 ppm [5]: > 75% | inhibition of growth at 300 ppm [6]: > 80% | inhibition of growth at 300 ppm [7]: > 70% | pest or weed control at 500 ppm [1]: 70 to 100%

CCN(C)C=Nc1cc(Cl)c(Cc2cccc(F)c2)cc1C [Compound 259, N′-(5-chloro-4-(3-fluorobenzyl)-2-methylphenyl)-N-ethyl-N-methylformimidamide]
inhibition of growth at 300 ppm [2]: > 75% | inhibition of growth at 300 ppm [3]: > 80% | inhibition of growth at 300 ppm [4]: > 80% | inhibition of growth at 300 ppm [5]: > 75% | inhibition of growth at 300 ppm [6]: > 80% | inhibition of growth at 300 ppm [7]: > 70% | inhibition of growth at 300 ppm [8]: 75%

CCN(C)C=Nc1cc(Cl)c(Cc2ccccc2C)cc1C [Compound 257, N′-(5-chloro-2-methyl-4-(2-methylbenzyl)phenyl)-N-ethyl-N-methylformimidamide]
inhibition of growth at 300 ppm [2]: > 75% | inhibition of growth at 300 ppm [3]: > 80% | inhibition of growth at 300 ppm [4]: > 80% | inhibition of growth at 300 ppm [5]: > 75% | inhibition of growth at 300 ppm [6]: > 80% | inhibition of growth at 300 ppm [7]: > 70% | inhibition of growth at 300 ppm [8]: 75%

CCN(C)C=Nc1cc(C)c(Cc2cccc(OC)c2)cc1Cl [Compound 70, N′-(2-chloro-4-(3-methoxybenzyl)-5-methylphenyl)-N-ethyl-N-methylformimidamide]
inhibition of growth at 300 ppm [2]: > 75% | inhibition of growth at 300 ppm [3]: > 80% | inhibition of growth at 300 ppm [4]: > 80% | inhibition of growth at 300 ppm [5]: > 75% | inhibition of growth at 300 ppm [6]: > 80% | inhibition of growth at 300 ppm [7]: > 70% | inhibition of growth at 300 ppm [8]: 75%

CCN(C)C=Nc1cc(Cl)c(Cc2ccc(C)cc2)cc1C [Compound 261, N′-(5-chloro-2-methyl-4-(4-methylbenzyl)phenyl)-N-ethyl-N-methylformimidamide]
inhibition of growth at 300 ppm [2]: > 75% | inhibition of growth at 300 ppm [3]: > 80% | inhibition of growth at 300 ppm [4]: > 80% | inhibition of growth at 300 ppm [5]: > 75% | inhibition of growth at 300 ppm [6]: > 80% | inhibition of growth at 300 ppm [7]: > 70% | inhibition of growth at 300 ppm [8]: 75%

CCN(C)C=Nc1cc(C)c(Cc2ccccc2F)cc1F [Compound 214, N-ethyl-N′-(2-fluoro-4-(2-fluorobenzyl)-5-methylphenyl)-N-methylformimidamide]
inhibition of growth at 300 ppm [2]: > 75% | inhibition of growth at 300 ppm [3]: > 80% | inhibition of growth at 300 ppm [4]: > 80% | inhibition of growth at 300 ppm [5]: > 75% | inhibition of growth at 300 ppm [6]: > 80% | inhibition of growth at 300 ppm [7]: > 70% | inhibition of growth at 300 ppm [8]: 75%

— patent publication US11155517B2, “4-substituted phenylamine derivatives and their use to protect crops by fighting undesired phytopathogenic micoorganisms” (PI INDUSTRIES LTD., priority 2016, dated 2021)
